# Read-outs that look alike come from different tables or passages of the source.
# Legend:
# HIV-1 K70T = experiment: Single-cycle drug susceptibility assay (MAGIC-5 cells); assay type: cell-based; conditions: for EC50: Human immunodeficiency virus 1, MAGIC-5, K70T; for Fold increase in EC50 compared to HIV-1 WT: K70T vs WT
# Protocol: (§1) The NL4-3-based molecular clone was constructed by replacing the pol-coding region with the HIV-1 BH10 strain. […] Each molecular clone was transfected into COS-7 cells. Cells were grown for 48 h, and culture supernatants were harvested and stored at −80°C until use.
# (§2) Susceptibilities to various RT inhibitors were determined using the MAGIC-5 cells which are HeLa cells stably transfected with a β-galactosidase gene under the control of an HIV long terminal repeat promoter, and with vectors that express the CD4 receptor and the CCR5 co-receptor under the control of the CMV promoter as described previously. Briefly, MAGIC-5 cells were infected with diluted virus stock (100 blue forming units) in the presence of increasing concentrations of RT inhibitors, cultured for 48 h, fixed, and stained with X-Gal (5-bromo-4-chloro-3-indolyl-β-D-galacto-pyranoside). The stained cells were counted under a light microscope.
# HIV-1 Q151Mc/K70E = experiment: as above; assay type: cell-based; conditions: for EC50: Human immunodeficiency virus 1, MAGIC-5, Q151Mc/K70E; for Fold increase in EC50 compared to HIV-1 Q151Mc: Q151Mc/K70E vs Q151Mc
# Protocol: as §1, §2
# HIV-1 Q151Mc [1] = experiment: as above; assay type: cell-based; conditions: Human immunodeficiency virus 1, MAGIC-5
# Protocol: as §1, §2
# HIV-1 K70Q = experiment: as above; assay type: cell-based; conditions: for EC50: Human immunodeficiency virus 1, MAGIC-5, K70Q; for Fold increase in EC50 compared to HIV-1 WT: K70Q vs WT
# Protocol: as §1, §2
# HIV-1 K70G = experiment: as above; assay type: cell-based; conditions: for EC50: Human immunodeficiency virus 1, MAGIC-5, K70G; for Fold increase in EC50 compared to HIV-1 WT: K70G vs WT
# Protocol: as §1, §2
# HIV-1 Q151Mc/K70G = experiment: as above; assay type: cell-based; conditions: for EC50: Human immunodeficiency virus 1, MAGIC-5, Q151Mc/K70G; for Fold increase in EC50 compared to HIV-1 Q151Mc: Q151Mc/K70G vs Q151Mc
# Protocol: as §1, §2
# HIV-1 K70E = experiment: as above; assay type: cell-based; conditions: for EC50: Human immunodeficiency virus 1, MAGIC-5, K70E; for Fold increase in EC50 compared to HIV-1 WT: K70E vs WT
# Protocol: as §1, §2
# HIV-1 K70R = experiment: as above; assay type: cell-based; conditions: for EC50: Human immunodeficiency virus 1, MAGIC-5, K70R; for Fold increase in EC50 compared to HIV-1 WT: K70R vs WT
# Protocol: as §1, §2
# HIV-1 Q151Mc/K70Q = experiment: as above; assay type: cell-based; conditions: for EC50: Human immunodeficiency virus 1, MAGIC-5, Q151Mc/K70Q
# Protocol: as §1, §2
# HIV-1 Q151Mc/K70T = experiment: as above; assay type: cell-based; conditions: for EC50: Human immunodeficiency virus 1, MAGIC-5, Q151Mc/K70T; for Fold increase in EC50 compared to HIV-1 Q151Mc: Q151Mc/K70T vs Q151Mc
# Protocol: as §1, §2
# HIV-1 K70N = experiment: as above; assay type: cell-based; conditions: for EC50: Human immunodeficiency virus 1, MAGIC-5, K70N; for Fold increase in EC50 compared to HIV-1 WT: K70N vs WT
# Protocol: as §1, §2
# HIV-1 Q151Mc/K70R = experiment: as above; assay type: cell-based; conditions: for EC50: Human immunodeficiency virus 1, MAGIC-5, Q151Mc/K70R; for Fold increase in EC50 compared to HIV-1 Q151Mc: Q151Mc/K70R vs Q151Mc
# Protocol: as §1, §2
# HIV-1 Q151Mc/K70N = experiment: as above; assay type: cell-based; conditions: for EC50: Human immunodeficiency virus 1, MAGIC-5, Q151Mc/K70N; for Fold increase in EC50 compared to HIV-1 Q151Mc: Q151Mc/K70N vs Q151Mc
# Protocol: as §1, §2
# HIV-1 NL4-3 strain (WT) = experiment: microbe, parasite or virus in culture; assay type: cell-based; conditions: Human immunodeficiency virus 1, NL43; WT, MAGIC-5 cells, Table S1; read-out: EC50
# Protocol: as §2
# HIV-1 Q151Mc [2] = conditions: cited from earlier work; for Increase in resistance: Q151Mc
# [3] = system: HIV-1 clinical isolate 1 (Q151Mc-containing); experiment: Single-cycle drug susceptibility assay (MAGIC-5 cells), clinical isolate 1; assay type: cell-based; conditions: Human immunodeficiency virus 1; clinical isolate 1, MAGIC-5 cells
# Protocol: (§3) HIV was isolated from fresh plasma immediately after collection of clinical samples from study participants at the outpatient clinic of the AIDS Clinical Center (ACC), International Medical Center of Japan. The Institutional Review Board approved this study (IMCJ-H13-80) and a written consent was obtained from all participants.
# as §2
# [4] = system: HIV-1 clinical isolate 2 (Q151Mc + K70Q); experiment: Single-cycle drug susceptibility assay (MAGIC-5 cells), clinical isolate 2; assay type: cell-based; conditions: Human immunodeficiency virus 1; clinical isolate 2, MAGIC-5 cells
# Protocol: as §3, §2
# HIV-1 WT = experiment: Single-cycle drug susceptibility assay (MAGIC-5 cells), recombinant WT clone; assay type: cell-based; conditions: Human immunodeficiency virus 1, Table S2
# Protocol: as §1, §2
# HIV-1 RT K70Q [5] = molecular target: T1, HIV-1 RT K70Q (Human immunodeficiency virus type 1 group M subtype B, UniProt P03366, K669Q); experiment: ATP-dependent rescue assay; assay type: biochemical
# T1 construct: made in house; host or cells: Escherichia coli BL21
# Protocol: (§4) Template/primer (T31/P18) terminated with TFV (T/PTFV) was prepared as described in Michailidis et al. 20 nM of T/PTFV was incubated at 37°C with HIV-1 RT (60 nM), either at various concentrations of ATP (0–7 mM) for 30 minutes, or for various times (0–120 minutes) with 3.5 mM ATP, in RT buffer containing 50 mM Tris-HCl, pH 7.8, and 50 mM NaCl, and 10 mM MgCl2. […] Reactions were quenched with 100% formamide containing traces of bromophenol blue and analyzed as described above. The dissociation constants (Kd) of the various enzymes for ATP used in the rescue reactions were determined by fitting the rescue data at various ATP concentrations, using non-linear regression fitting to hyperbola.
# HIV-1 RT WT = molecular target: T2, HIV-1 RT WT (Human immunodeficiency virus type 1 group M subtype B, UniProt P03366); experiment: ATP-dependent rescue assay; assay type: biochemical; conditions: rescue of TFV-terminated primer, 30 minutes, read-out: apparent KD-ATP
# T2 construct: made in house; host or cells: Escherichia coli BL21
# Protocol: as §4
# HIV-1 RT Q151Mc [6] = molecular target: T3, HIV-1 RT Q151Mc (Human immunodeficiency virus type 1 group M subtype B, UniProt P03366, A661V/F676L/F715Y/Q750M/V674I); experiment: ATP-dependent rescue assay; assay type: biochemical
# T3 construct: made in house; host or cells: Escherichia coli BL21
# Protocol: as §4
# HIV-1 RT K70Q/Q151Mc [7] = molecular target: T4, HIV-1 RT K70Q/Q151Mc (Human immunodeficiency virus type 1 group M subtype B, UniProt P03366, A661V/F676L/F715Y/K669Q/Q750M/V674I); experiment: ATP-dependent rescue assay; assay type: biochemical
# T4 construct: made in house; host or cells: Escherichia coli BL21
# Protocol: as §4
# HIV-1 RT Q151Mc [8] = experiment: ATP-dependent rescue assay; assay type: biochemical; conditions: WT RT vs Q151Mc RT, TFV-terminated primers, 3.5 mM ATP
# Protocol: as §4
# HIV-1 RT K70Q [9] = experiment: ATP-dependent rescue assay; assay type: biochemical; conditions: WT RT vs K70Q RT, TFV-terminated primers, 3.5 mM ATP
# Protocol: as §4
# HIV-1 RT K70Q/Q151Mc [10] = experiment: ATP-dependent rescue assay; assay type: biochemical; conditions: WT RT vs K70Q/Q151Mc RT, TFV-terminated primers, 3.5 mM ATP
# Protocol: as §4
Compound,EC50 (HIV-1 K70T),Fold increase in EC50 compared to HIV-1 WT (HIV-1 K70T),EC50 (HIV-1 Q151Mc/K70E),Fold increase in EC50 compared to HIV-1 Q151Mc (HIV-1 Q151Mc/K70E),EC50 (HIV-1 Q151Mc [1]),EC50 (HIV-1 K70Q),EC50 (HIV-1 K70G),Fold increase in EC50 compared to HIV-1 WT (HIV-1 K70G),EC50 (HIV-1 Q151Mc/K70G),EC50 (HIV-1 K70E),Fold increase in EC50 compared to HIV-1 WT (HIV-1 K70E),EC50 (HIV-1 K70R),Fold increase in EC50 compared to HIV-1 WT (HIV-1 K70R),EC50 (HIV-1 Q151Mc/K70Q),EC50 (HIV-1 Q151Mc/K70T),Fold increase in EC50 compared to HIV-1 Q151Mc (HIV-1 Q151Mc/K70T),EC50 (HIV-1 K70N),Fold increase in EC50 compared to HIV-1 WT (HIV-1 K70N),EC50 (HIV-1 Q151Mc/K70R),Fold increase in EC50 compared to HIV-1 Q151Mc (HIV-1 Q151Mc/K70R),also measured
"Nc1nc(NC2CC2)c2ncn([C@H]3C=C[C@@H](CO)C3)c2n1 [ABC, abacavir]",2.6 ± 0.21 µM,(1.4) fold,34 ± 2.1 µM,(2.3) fold,15 ± 2.1 µM,3.5 ± 0.6 µM,6.6 ± 0.29 µM,(3.7) fold,35 ± 2.7 µM,7.3 ± 0.12 µM,(4.1) fold,2.8 ± 0.31 µM,(1.6) fold,24 ± 2.9 µM,25 ± 2.3 µM,(1.7) fold,3.2 ± 0.3 µM,(1.8) fold,14 ± 1 µM,(0.9) fold,"Fold increase in EC50 compared to HIV-1 WT (HIV-1 K70Q): (1.9) fold; Fold increase in EC50 compared to HIV-1 Q151Mc (HIV-1 Q151Mc/K70G): (2.5) fold; Fold increase in EC50 compared to HIV-1 Q151Mc (HIV-1 Q151Mc/K70Q; Q151Mc/K70Q vs Q151Mc): (1.6) fold; EC50 (HIV-1 Q151Mc/K70N): 16 ± 2.1 µM; Fold increase in EC50 compared to HIV-1 Q151Mc (HIV-1 Q151Mc/K70N): (1.1) fold; EC50 (HIV-1 NL4-3 strain (WT)): 1.6 ± 0.46 µM; Resistance (HIV-1 Q151Mc [2]; Q151M plus the four associated mutations ref 17, 18, 19, 20, 21): 5 fold; EC50 [3]: 16.3 ± 2.52 µM; EC50 [4]: 24.7 ± 2.89 µM; EC50 (HIV-1 WT): 1.8 ± 0.22 µM"
"Nc1ncnc2c1ncn2[C@@H]1O[C@H](COP(=O)(O)OP(=O)(O)OP(=O)(O)O)[C@@H](O)[C@H]1O [ATP, adenosine triphosphate]",–,–,–,–,–,–,–,–,–,–,–,–,–,–,–,–,–,–,–,–,Kd (HIV-1 RT K70Q [5]): 700 µM; Kd (HIV-1 RT WT): 400 µM; Kd (HIV-1 RT Q151Mc [6]): 2300 µM; Kd (HIV-1 RT K70Q/Q151Mc [7]): 3100 µM
"C[C@H](Cn1cnc2c(N)ncnc21)OCP(=O)(O)O [TFV, tenofovir]",–,–,–,–,–,–,–,–,–,–,–,–,–,–,–,–,–,–,–,–,"Increase in resistance (HIV-1 Q151Mc [2]; Miller et al. ref 22): 1.8 fold; Increase in resistance (HIV-1 Q151Mc [2]; Smith et al. ref 23): 3.6 fold; ATP-based rescue activity of WT RT, fold faster than mutant RT (HIV-1 RT Q151Mc [8]): 2.5 fold; ATP-based rescue activity of WT RT, fold faster than mutant RT (HIV-1 RT K70Q [9]): 1.5 fold; ATP-based rescue activity of WT RT, fold faster than mutant RT (HIV-1 RT K70Q/Q151Mc [10]): 3 fold"
"Cc1cn([C@H]2C=C[C@@H](CO)O2)c(=O)[nH]c1=O [d4T, stavudine]",2.2 ± 0.17 µM,(0.8) fold,32 ± 3.6 µM,(1.3) fold,25 ± 2.3 µM,3 ± 0.21 µM,4.3 ± 0.26 µM,(1.7) fold,115 ± 5.1 µM,16 ± 2.7 µM,(6.2) fold,4.3 ± 0.57 µM,(1.7) fold,110 ± 6.6 µM,16 ± 2.7 µM,(0.6) fold,3.4 ± 0.25 µM,(1.3) fold,44 ± 4.5 µM,(1.8) fold,Fold increase in EC50 compared to HIV-1 WT (HIV-1 K70Q): (1.2) fold; EC50 (HIV-1 Q151Mc/K70N): 25 ± 4 µM; Fold increase in EC50 compared to HIV-1 Q151Mc (HIV-1 Q151Mc/K70N): (1) fold; EC50 (HIV-1 NL4-3 strain (WT)): 2 ± 0.55 µM; EC50 [3]: 18.3 ± 1.53 µM; EC50 [4]: > 100 µM; EC50 (HIV-1 WT): 2.6 ± 0.23 µM
"O=c1[nH]cnc2c1ncn2[C@H]1CC[C@@H](CO)O1 [ddI, didanosine]",8.9 ± 0.31 µM,(3.7) fold,30 ± 1.7 µM,(0.7) fold,45 ± 1 µM,12 ± 1.7 µM,16 ± 1.5 µM,(6.7) fold,59 ± 5 µM,13 ± 3.5 µM,(5.4) fold,3.3 ± 0.29 µM,(1.4) fold,108 ± 2.5 µM,13 ± 1.5 µM,(0.3) fold,3.7 ± 0.32 µM,(1.5) fold,53 ± 3.1 µM,(1.2) fold,Fold increase in EC50 compared to HIV-1 Q151Mc (HIV-1 Q151Mc/K70G): (1.3) fold; EC50 (HIV-1 Q151Mc/K70N): 109 ± 4.4 µM; Fold increase in EC50 compared to HIV-1 Q151Mc (HIV-1 Q151Mc/K70N): (2.4) fold; EC50 (HIV-1 NL4-3 strain (WT)): 2.5 ± 0.35 µM; EC50 [3]: 29.3 ± 3.06 µM; EC50 [4]: > 100 µM; EC50 (HIV-1 WT): 2.4 ± 0.26 µM
